# US7966056B2, “Magnetic resonance imaging method and compounds for use in the method” (GE Healthcare AS, priority 2002, dated 2011)
# How the values were obtained:
# [1] = maximum solubility in water; format: physicochemical
# Source text: In the method according to the invention the contrast agent is preferably administered in a bolus injection although slow injection or infusion of the contrast agent is also suitable. For Mn^2+ complexes with low formation constants, e.g. in the area 10^3 to 10^8 there might be a risk that the release of Mn^2+ from the complex may still be sufficiently rapid to induce cardiotoxic reactions in the body. To avoid such toxic reactions, the contrast agent comprising such complexes could be provided in solutions comprising low concentrations of such complexes. If it is preferred to provide the contrast agent in dry form, e.g. as a lyophilized powder, for on site preparation of the solution for injection, complexes with properties that avoid the preparation of high concentration solutions provide an additional advantage. For example the sodium salt of MnTPP, Na3MP3O10, has a limited solubility, thus prohibiting injections of highly concentrated solutions of manganese. […] This injection volume additionally prohibits rapid bolus injections of sodium salts of MnTPP.
# [2] = system: mice; conditions: intravenous injection in mice; cited from earlier work
# [3] = system: anaesthetised dogs; assay: cardiovascular effects in anaesthetised dogs with and without dobutamine stress (Example 7); format: in vivo; conditions: dobutamine alone, 5-20 μg/kg/min infusion
# Method: The cardiovascular effects of MnHPTA with various amounts of Ca^2+ (0, 0.5 and 1 mol Ca^2+ per mol Mn^2+) were investigated in the presence and absence of dobutamine induced pharmacological stress in anaesthetised dogs.
# Anaesthesia was induced with pentobarbital (12-25 mg/kg i.v.) and fentanyl (1.5-2.5 μg/kg i.v.), followed by a continuous i.v. infusion of fentanyl (20 μg/kg/h and pentobarbital (10 mg/kg/h). Artificial ventilation was carried out by room air through a tracheal tube, aimed at achieving normal physiological blood gas values. A catheter was introduced through the right femoral artery for measurement of SAP. A microtip pressure transducer catheter (Millar) was placed into the left ventricle through the carotid artery for measurements of LVdP/dt. A Swan-Ganz catheter was introduced through the right femoral vein for measuring PAP (pulmonary arterial pressure). A 3-lead ECG was continuously-monitored. An ultrasonic flow probe was placed around the left femoral artery for flow measurement. Venflon cannulas were introduced into the left and right jugular veins for contrast agent injections and dobutamine infusions, respectively. […]
# Systolic, diastolic and mean systemic arterial pressure (SYS, DIA MEAN), LVdP/dt, femoral arterial flow, mean PAP (pulmonary arterial pressure), HR (heart rate) and ECG were continuously monitored and stored by a computer system.
# [4] = system: myocardium
# Method: In an anaesthesed pig, heart rate and systolic/diastolic blood pressure were monitored.
# Dobutamine was infused at a dose of 10 μg/kg body weight/min and increased by 10 μg/kg/min every second minute until a PRP (pressure-rate product) of a factor 2.5 was achieved.
# 10 μmol/kg body weight of MnTPP was injected in a bolus during 4 seconds.
# The pig was subjected to imaging at 1.5 T in a clinical scanner. Short axis view images of the myocardium were acquired 45 minutes post injection.
molecule,measurement,setting,value
O=P([O-])([O-])OP(=O)([O-])OP(=O)([O-])[O-].[Mn+2].[Na+].[Na+].[Na+] [sodium salt of MnTPP],maximum solubility in water,[1],23 mM
[Ba+2].[Cl-].[Cl-] [BaCl2],LD50,[2],19.2 mg/kg
[Ca+2].[Cl-].[Cl-] [CaCl2],LD50,[2],42.2 mg/kg
"CC(CCc1ccc(O)cc1)NCCc1ccc(O)c(O)c1 (stereo not drawn) [Dobutamine, dobutamine]",increase in dP/dt max,[3],4 times
manganese triphosphate [MnTPP],clinical signs represented by changes in physiological parameters,"[4]; 10 μmol/kg body weight bolus during 4 seconds, dobutamine stress, anaesthetised pig",No clinical signs represented by changes in physiological parameters were observed
same,short axis view MR images of the myocardium,"[4]; 10 μmol/kg, 1.5 T, 45 minutes post injection, pig",visualised an underperfused area
